Read-outs that look alike come from different tables or passages of the source.
Tests used:
[1] = system: cerebral ischemia/hypoxia-induced learning and memory impairment; assay: water maze spatial learning and memory after global cerebral ischemia/hypoxia (Example 3); assay type: in vivo, rat
Procedure: Global cerebral ischemia/hypoxia was induced in male Wistar rats (225-250 g) by permanently occluding the bilateral common carotid arteries, combined with about 14 minutes of low oxygen (about 5%). […] Spatial learning (2 trials/ day for 4 days) and memory (a probe test of 1 minute, 24 hours after the last trial) task was performed 9 days after the last dose. Overall, there was a significant difference between the groups (F3,255=31.856, p<0.001) and groups x trials (F21,255=1.648, p<0.05). Global cerebral ischemia impaired the spatial learning (ischemial vs. sham-operated F1,127=[…]).

[2] = system: cerebral ischemia-induced memory impairment; assay: water maze spatial learning and probe test after global ischemia (Example 2); assay type: in vivo, rat; details: for water maze spatial learning, ischemic with treatment vs. control rats: trained one week after last dose; for water maze spatial learning, ischemic with treatment vs. ischemic rats: treatment started 24 hours after hypoxia, bryostatin-1 20 μg/m^2 i.v. 2 doses/week 10 doses, MCDA 1.0 mg/kg i.p. daily 5 weeks
Procedure: Rats (male, Wistar, 200-225 g) were randomly divided into 6 groups (8 each) and housed for 1 week before experimentation. Transient or permanent restriction of cerebral blood flow and oxygen supply results in ischemic stroke. The global ischemia model used to induce vascular memory impairment was two-vessel occlusion combined with a short term systemic hypoxia. Ligation of the bilateral common carotid arteries was performed under anesthesia (pentobarbital, 60 mg/kg, i.p.). After a one-week recovery from the surgery, rats were exposed to 14-min hypoxia (5% oxygen in a glass jar). Control rats (sham operated and vehicle controls) were subjected to the same incision to isolate both common carotid arteries and to 14-min air (in the glass jar). Body temperature was kept at 37-37.5° C. using a heating light source during the surgical procedure and until the animals were fully recovered.
4-Methylcatechol-diacetic acid (MCDA, a potential NGF and BDNF booster) was administered at 1.0 mg/kg (i.p., daily for the same 5-week period) in separate groups of rats.
A visible platform test was given after the probe test.

[3] = humans; cited from earlier work
[4] = biological target: T1, PKCε (Homo sapiens, UniProt Q02156); details: cited from earlier work
T1 sequence (Q02156 1-737): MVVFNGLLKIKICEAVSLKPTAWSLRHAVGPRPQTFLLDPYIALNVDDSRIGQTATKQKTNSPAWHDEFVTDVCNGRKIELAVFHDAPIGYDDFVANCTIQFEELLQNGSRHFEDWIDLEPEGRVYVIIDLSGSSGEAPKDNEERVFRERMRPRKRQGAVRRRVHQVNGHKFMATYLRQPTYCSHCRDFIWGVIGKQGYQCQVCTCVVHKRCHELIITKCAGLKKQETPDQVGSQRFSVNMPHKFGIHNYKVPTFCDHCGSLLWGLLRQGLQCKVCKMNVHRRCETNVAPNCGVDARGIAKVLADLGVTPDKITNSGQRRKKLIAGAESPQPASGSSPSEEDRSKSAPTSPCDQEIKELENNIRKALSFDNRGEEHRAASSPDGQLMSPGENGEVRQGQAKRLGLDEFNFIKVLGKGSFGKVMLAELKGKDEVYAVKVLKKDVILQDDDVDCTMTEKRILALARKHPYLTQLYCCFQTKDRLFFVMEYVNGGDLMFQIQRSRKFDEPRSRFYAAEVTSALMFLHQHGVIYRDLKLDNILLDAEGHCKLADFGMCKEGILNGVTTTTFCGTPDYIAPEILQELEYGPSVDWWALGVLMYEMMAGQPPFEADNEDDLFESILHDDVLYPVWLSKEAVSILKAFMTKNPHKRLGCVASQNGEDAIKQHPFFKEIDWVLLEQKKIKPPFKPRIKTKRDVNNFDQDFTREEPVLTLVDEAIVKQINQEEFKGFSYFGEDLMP

[5] = system: PKC; details: K562 cells; cited from earlier work
[6] = system: murine leukemias and solid tumors; details: cited from earlier work
[7] = system: cyclin dependent kinase 2 (Cdk2); details: at 5 ng/ml; cited from earlier work
[8] = biological target: PKC; details: [3H]phorbol dibutyrate; read-out: Ki for binding; cited from earlier work
[9] = system: squamous cell carcinoma and melanoma; details: used topically; cited from earlier work
[10] = system: NCI 60 cell line screen; details: cited from earlier work
[11] = biological target: protein kinase C; details: (−)-enantiomer; cited from earlier work
[12] = biological target: PKC; details: A-ring bryologs; read-out: affinity for PKC; cited from earlier work
[13] = non-ischemic rats, same regimens

SMILES: CCCC=CC=CC(=O)OC1C(=CC(=O)OC)CC2CC(C(C)O)OC(=O)CC(O)CC3CC(OC(C)=O)C(C)(C)C(O)(CC4CC(=CC(=O)OC)CC(C=CC(C)(C)C1(O)O2)O4)O3 (stereo not shown) [Bryostatin 1, bryostatin-1]
- target quadrant preference, Bryostatin-1 alone vs. sham-operated ([1]; 15 μg/m^2): no significant effects
- spatial learning, Bryostatin-1 alone vs. sham-operated ([1]; 15 μg/m^2, 9 days after the last dose): did not affect the learning
- memory retention test after ischemia ([1]; 15 μg/m^2, probe test 24 hours after last trial): effectively restored memory retention after ischemia to the level of the sham-operated rats
- spatial learning impairment, Bryostatin-1+Ischemia vs. Ischemia ([1]; 15 μg/m^2 tail vein, 2 doses/week, 10 doses, from about 24 hours after ischemia, tested 9 days after last dose): restored
- water maze spatial learning, compound-only vs. control rats [2, 13]: no differences
- water maze spatial learning, ischemic with treatment vs. control rats ([2]; same regimens): did not differ statistically from the control rats
- water maze spatial learning, ischemic with treatment vs. ischemic rats [2]: greatly improved the performance
- main adverse reaction [3]: myalgia

SMILES: CCCCCC1CC1CC1CC1CCCCCCCC(=O)O (stereo not shown) [DCP-LA, 2-[(2-pentylcyclopropyl)methyl] cyclopropaneoctanoic acid]
- concentration of maximal effect on PKCε activation [4]: 100 nM

SMILES: C=C(C)C12C[C@@H](COC(=O)c3ccccc3)[C@@]34OC5(O[C@@H]1[C@@H]3C1O[C@]1(CO)[C@@H](O)[C@@]1(O)[C@H]4[C@@H](C(C)CCCCCC[C@H]5O)C(C)[C@@H]1OC(=O)c1ccccc1)O2 (stereo partly shown) [Gnidimacrin]
- concentration acting as PKC activator [5]: ≈ 3 nM
- concentrations with potent antitumor activity [6]: 0.1 to 1 nM
- inhibition of Cdk2 [7]: 100%

SMILES: CC1=C[C@]23C(=O)[C@@H](C=C(COC(=O)c4ccccc4)[C@@H](O)[C@]2(O)[C@H]1OC(=O)c1ccccc1)[C@H]1[C@@H](C[C@H]3C)C1(C)C [Ingenol 3,20-dibenzoate]
- Ki [8]: 240 nM

SMILES: C/C=C(/C)C(=O)O[C@H]1C(C)=C[C@]23C(=O)[C@@H](C=C(CO)[C@@H](O)[C@]12O)[C@H]1[C@@H](C[C@H]3C)C1(C)C [Ingenol-3-angelate]
- antitumor activity [9]: possesses antitumor activity

SMILES: CC1=CC[C@H](C)C(C)(C)[C@@H]1/C=C/C(C)=C/CC[C@@]1(CO)[C@H](CCCO)/C(=C(/C)C=O)CC[C@]1(C)O [Iripallidal]
- GI50 (concentration required to inhibit growth by 50%) [10]: from micromolar to nanomolar range

SMILES: Cc1ccc(OCC(=O)O)c(OCC(=O)O)c1 [MCDA, 4-Methylcatechol-diacetic acid]
- target quadrant ratio in probe test, compound-only vs. control rats [2, 13]: no differences
- water maze spatial learning, compound-only vs. control rats [2, 13]: no differences
- target quadrant ratio in probe test, ischemic with treatment vs. control rats ([2]; same regimens): no differences
- target quadrant ratio in probe test, ischemic with treatment vs. ischemic rats ([2]; same regimens): group differences
- water maze spatial learning, ischemic with treatment vs. control rats ([2]; same regimens): remained significant
- water maze spatial learning, ischemic with treatment vs. ischemic rats [2]: improved the learning of the ischemic rats

SMILES: CCCCCCCCc1ccc2c3c(c[nH]c13)C[C@@H](CO)NC(=O)[C@H](C(C)C)N2C [Octylindolactam V]
- EC50 [11]: 29 nM

SMILES: CCCCCCCC(=O)OC1C(=CC(=O)OC)CC2CC(CO)OC(=O)CC(O)CCOC(C(C)(C)C)CC3CCOC(C=CC(C)(C)C1(O)O2)O3 (stereo not shown) [bryolog 3]
- Ki [12]: 6.5 nM

SMILES: CCCCCCCC(=O)OC1C(=CC(=O)OC)CC2CC(CO)OC(=O)CC(O)CCOC(c3ccccc3)CC3CCOC(C=CC(C)(C)C1(O)O2)O3 (stereo not shown) [bryolog 4]
- Ki [12]: 2.3 nM

SMILES: CCCCCCCC(=O)OC1C(=CC(=O)OC)CC2CC(CO)OC(=O)CC(O)CCOC(CCCc3ccc(Br)cc3)CC3CCOC(C=CC(C)(C)C1(O)O2)O3 (stereo not shown) [bryolog 5]
- Ki [12]: 1.9 nM
